Tests used:
cultured podocytes [1] = experiment: High-content focal adhesion assay in cultured differentiated podocytes (anti-paxillin stain); format: cell-based, murine; details: 48 h at 37° C., 96-well plates
Experimental: FIG. 6. […] Differentiated podocytes were cultured in 96-well multiwell plates. Cells were either kept in normal cell culture media or were treated with increasing concentration of PAN for 48 h at 37° C. Subsequently, the cells were fixed with paraformaldehyde and the focal adhesions were stained using an anti-paxillin antibody. Cells were imaged using PerkinElmer OPERA High-content screening microscope and the images were analyzed using PerkinElmer Columbus analysis system to […] in each well of the multiwell plate. FIGS. 6A and 6B show representative images of untreated (A) and PAN-treated (B) podocytes. […] These two parameters also gave a reproducible IC50 value for PAN as an in vitro podocyte damaging agent. Each data point represents average count per cell (from approximately 500-2000 cells/well) from a single well.
FIG. 7. Focal adhesion protection with Mizouribine. […] Cells were imaged using PerkinElmer OPERA High-content screening microscope and the images were analyzed using PerkinElmer Columbus analysis system to count F-actin fibers per cell in each well of the multiwell plate. […] The method allowed quantitative assessment of podocyte protection in a dose-response fashion using these parameters based on the podocyte focal adhesions when treated with the compounds PAN and mizouribine. […]

cultured podocytes [2] = experiment: High-content F-actin stress fiber assay in cultured differentiated podocytes (phalloidin stain); format: cell-based, murine; details: 48 h at 37° C., 96-well plates
Experimental: A dose-response curve showing the effects of increasing concentration of podocyte injuring drug puromycin aminonucleoside (PAN) on various cellular parameters, including the intensity and the number of actin fibers, in cultured podocytes. Differentiated podocytes were cultured in 96-well multiwell plates. Cells were either kept in normal cell culture media or were treated with increasing concentration of PAN for 48 h at 37° C. Subsequently, the cells were fixed with paraformaldehyde and the filamentous actin (F-actin) fibers stained using Alexa Fluor 594-labeled phalloidin. Cells were imaged using PerkinElmer OPERA High-content screening microscope and the images were analyzed using PerkinElmer Columbus analysis system to count F-actin fibers per cell in each well of the multiwell plate. FIGS. 4A and 4B show representative images of untreated (A) and PAN-treated (B) podocytes. […] These two parameters also gave a reproducible IC50 value for PAN as an in vitro podocyte damaging agent. Each data point represents average F-actin fiber count per cell (from approximately 500-2000 cells/well) from a single well.
FIG. 5. […] Cells were imaged using PerkinElmer OPERA High-content screening microscope and the images were analyzed using PerkinElmer Columbus analysis system to count F-actin fibers per cell in each well of the multiwell plate. […]

[3] = increasing concentration of PAN
[4] = co-treatment with PAN and increasing concentration of mizouribine

SMILES | effect on number and intensity of focal adhesions (relative spot to background intensity; FA - number of objects) (cultured podocytes [1]; [3]) | effect on intensity and number of actin fibers (relative spot to background intensity; whole cell fibers - number of objects) (cultured podocytes [2]; [3]) | protection of podocyte focal adhesions from PAN damage (cultured podocytes [1]; [4]) | protection of podocyte actin fibers from PAN damage (cultured podocytes [2]; [4])
CN(C)c1ncnc2c1ncn2[C@@H]1O[C@H](CO)[C@@H](N)[C@H]1O [PAN, puromycin aminonucleoside] | leads to reduced focal adhesions | podocyte damage in a dose-response fashion | – | –
NC(=O)c1ncn([C@@H]2O[C@H](CO)[C@@H](O)[C@H]2O)c1O [Mizouribine, mizouribine] | – | – | protects the focal adhesions from PAN damage | dose-dependently prevents podocyte damage

Reference: patent publication US10526579B2, “Podocyte cultures and uses thereof” (RUSH UNIVERSITY MEDICAL CENTER, priority 2013, dated 2020)
